“And” between values parts separate entries of the source, which are not always exact repeats. Equal entries are not always repeated.
What was measured:
[1] = biological target: T1, gastrin receptors or type-B cholecystokinin (CCK-B) receptors (Oryctolagus cuniculus, UniProt P46627); assay: Inhibition of the gastrin-induced increase of cytosolic calcium in rabbit gastric mucous-membrane cells (Fura 2); format: cell-based; settings: for Ratio IC50 Binding cortex / IC50 (gastric mucous cells): binding values taken from Table 3; for CCK-B-antagonistic activity IC50 (II): data taken from Table 4 (rabbit gastric mucous cells), reprinted in Table 6; for IC50, inhibition of the increase of cytosolic calcium: rabbit gastric mucous cells enriched in parietal cells, gastrin 5×10^-8
T1 construct: Rabbit gastric mucous-membrane cells were prepared by conventional techniques; endogenous in cells; host or cells: freshly isolated rabbit gastric mucosal cells, enriched by elutriation to about 70% parietal cells
T1 sequence (P46627 1-452): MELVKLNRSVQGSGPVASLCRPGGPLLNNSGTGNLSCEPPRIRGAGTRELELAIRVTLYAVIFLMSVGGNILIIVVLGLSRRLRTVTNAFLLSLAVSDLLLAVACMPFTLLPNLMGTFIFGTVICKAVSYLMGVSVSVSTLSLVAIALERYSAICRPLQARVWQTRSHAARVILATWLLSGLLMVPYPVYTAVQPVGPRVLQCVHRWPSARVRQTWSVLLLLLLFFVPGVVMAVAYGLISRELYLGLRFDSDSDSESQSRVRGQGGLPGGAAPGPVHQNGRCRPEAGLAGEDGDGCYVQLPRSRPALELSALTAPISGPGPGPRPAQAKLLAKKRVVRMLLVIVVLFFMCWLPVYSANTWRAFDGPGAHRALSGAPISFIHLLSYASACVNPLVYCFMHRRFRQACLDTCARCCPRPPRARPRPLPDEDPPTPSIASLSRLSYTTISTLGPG
Source text: The parietal cells of the gastric mucous membrane are responsible for the secretion of HCl. They have specific membrane receptors which can be activated by gastrin and which have been defined as gastrin receptors or type-B cholecystokinin (CCK-B) receptors. Since it has been observed that the activation of the CCK-B receptors by gastrin leads to an increase in the cytosolic levels of calcium ions, a technique involving the measurement of the increase in intracellular calcium induced by gastrin in the presence and in the absence of the compounds of the invention was used as an index of the antigastrin activity of the compounds. Rabbit gastric mucous-membrane cells were prepared by conventional techniques with the use of collagenase and pronase as digestive enzymes. The cellular preparation obtained by the enzymatic digestion was composed of parietal cells, zymogen cells and mucous-membrane cells. […] The cells were then washed and resuspended in a saline solution buffered with HEPES containing, in mM: […] Each measurement was carried out on cells in suspension (0.8×10^6 /ml) at a thermostatically-controlled temperature of 37° C. and with constant magnetic stirring. The fluorescence was recorded with the use of a spectrofluorometer. The operative wavelengths were 340/380 nm for excitation and 505 nm for emission. […] Biol. Chem. 260 (1985), 3440]. […] The results thus obtained for some compounds of the invention are given in Table 4, which also gives an index derived from the ratio between the peripheral antigastrin activity just described and the displacement activity found in the test on binding to the guinea-pig cortex receptors described above.

[2] = tested on: acid secretion induced by pentagastrin; assay: Acid secretion induced by pentagastrin in the anaesthetized rat; format: in vivo; settings: iv, 1 h, I.V. bolus, pentagastrin 30 mcg/kg/h, read-out: Activity (ID50), inhibition of the acid secretion induced by pentagastrin
Method: The activity of the compounds of the invention against gastric secretion performed by means of a mechanism with an antigastrin effect, was examined in vivo in anaesthetized rats with the use of male animals weighing about 200 g. Gastric secretion was stimulated with pentagastrin and Lai's method [Gut 5, (1964), 327-341 ] was used, with slight modification.
After tracheotomy, the oesophagus and duodenum were cannulated. A tepid solution (37° C.) of 0.25 mM NaOH was perfused and was passed through the stomach by means of a peristaltic pump at a constant flow-rate of 1 ml/minute. After stabilization for 20 minutes, the stimulant, dissolved in a physiological solution, was perfused for 120 minutes at a dose of 30 mcg/kg/h, in a volume of 0.95 ml/hour. After perfusion for 60 minutes (the basal stimulation), the product under test was administered intravenously (I.V.) as a bolus and perfusion of the stimulant was continued for a further 60 minutes. The acid secretion was recorded continuously as a function of time.
The activity of the product was evaluated as the percentage reduction of secreted acidity after the administration of the product, in comparison with the basal acidity measured during the first 60 minutes of collection in the presence of pentagastrin alone.
The antagonistic compounds tested were administered in various doses so that an ID50, that is, the dose (in mg/kg I.V.) which could inhibit the effect of pentagastrin by 50%, could be calculated.

CCK-A = biological target: T2, CCK-A (Cavia porcellus, UniProt Q63931); assay: Anti-CCK-A activity on guinea-pig gall bladder stimulated in vitro by CCK-8; settings: for Ratio I/II (CCK-A IC50 / CCK-B IC50): gall bladder IC50 over gastric mucous cells IC50; for IC50: guinea-pig gall bladder in vitro, CCK-8 10 ng/ml, read-out: CCK-A-antagonistic activity IC50 (I)
T2 construct: A longitudinal strip of guinea-pig gall-bladder was put in a bath for isolated organs; from tissue; host or cells: guinea-pig gall bladder longitudinal strip
T2 sequence (Q63931 1-430): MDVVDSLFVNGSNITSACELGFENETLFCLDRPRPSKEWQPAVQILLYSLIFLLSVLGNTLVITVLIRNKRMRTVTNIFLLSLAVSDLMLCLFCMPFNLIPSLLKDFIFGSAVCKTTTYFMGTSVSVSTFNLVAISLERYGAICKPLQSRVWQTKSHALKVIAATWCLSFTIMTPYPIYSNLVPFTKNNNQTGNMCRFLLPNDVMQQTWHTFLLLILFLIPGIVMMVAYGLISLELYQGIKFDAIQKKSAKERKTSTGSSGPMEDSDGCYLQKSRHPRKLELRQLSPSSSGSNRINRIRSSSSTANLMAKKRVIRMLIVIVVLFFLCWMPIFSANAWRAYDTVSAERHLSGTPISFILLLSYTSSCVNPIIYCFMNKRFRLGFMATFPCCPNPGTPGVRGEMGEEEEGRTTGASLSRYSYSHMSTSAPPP
Method: The experimental model used was guinea-pig gall bladder stimulated in vitro by CCK-8, with the use of lorglumide as the reference standard. A longitudinal strip of guinea-pig gall-bladder was put in a bath for isolated organs in the presence of Krebs buffer at a temperature of 32° C., with continuous oxygenation with an oxygen-CO2 mixture (95-[…]). The isometric contractions were detected by means of a force transducer and recorded.

central CCK-B receptor = biological target: T3, central CCK-B receptor (Cavia porcellus, UniProt H0VZC5); assay: Inhibition of the binding of [3-H][N-methyl-N-leucine]CCK-8 to guinea-pig cortical membranes; settings: for IC50: guinea-pig cortical membranes, 150 minutes at 25° C.
T3 construct: Cerebral cortices of male white guinea-pigs were thus used; from tissue; host or cells: cerebral cortex membranes of male white guinea-pigs
T3 sequence (H0VZC5 1-426): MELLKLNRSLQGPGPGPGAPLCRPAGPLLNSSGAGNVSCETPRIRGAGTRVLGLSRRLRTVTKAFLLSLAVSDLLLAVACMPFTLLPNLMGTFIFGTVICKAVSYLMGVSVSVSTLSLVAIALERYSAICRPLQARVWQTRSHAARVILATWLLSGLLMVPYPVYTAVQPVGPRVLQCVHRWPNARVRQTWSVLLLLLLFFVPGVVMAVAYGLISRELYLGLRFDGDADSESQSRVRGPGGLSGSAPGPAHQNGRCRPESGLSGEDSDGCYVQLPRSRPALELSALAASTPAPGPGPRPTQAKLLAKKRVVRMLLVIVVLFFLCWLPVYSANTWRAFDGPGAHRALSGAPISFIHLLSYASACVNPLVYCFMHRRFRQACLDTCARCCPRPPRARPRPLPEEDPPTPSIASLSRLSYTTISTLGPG
Method in brief: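 Male guinea-pig cerebral cortex membranes (about 300 mcg protein/ml) incubated with non-sulphated [3-H]-labelled CCK-8 tracer and compound 150 minutes at 25° C. Pellet radioactivity counted by liquid scintillation; nonspecific binding defined with 5.10^-6 M CCK-8.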

mouse = assay: Black and White Box test in the mouse (anxiolytic activity); format: in vivo; settings: for LIGHT TIME TOTAL TIME / LIGHT-DARK MOVEMENTS / MOV. DARK % TOTAL MOV. / TOTAL MOVEMENTS: 5 minutes
Method: It has recently been postulated that the central CCK-B receptor has an important role in anxiety. This is in accordance with studies also carried out in man, which have shown that the central CCK-B mechanisms have an important function in the mediation of panic attacks [Bradwejn, H. et al; J. Psychopharmacology 6 (1992), 345]. […] This experimental model, which was carried out according to Costall et al [Pharm. Biochem. Behav. 32 (1989), 777-785], used a box with dimensions of 45×21×21(h) cm divided into 2 compartments which communicated with one another through a 13×5 cm hole. The smaller compartment (1/3 of the total area) had black walls, whereas the larger had transparent walls and was illuminated by a lamp which was placed 20 cm above the box and supplied light at 20W. Under the floor there was an activity meter which recorded the movements performed by the animal in the individual compartments. The experiment was started by placing the animal in the centre of the illuminated box; as well as movements, the time which the animal spent in the dark and in the light areas and the number of movements between the 2 compartments were then recorded for 5 minutes. A control animal generally preferred to stay in the dark compartment where it felt better protected from an unusual environmental situation which put it in a state of anxiety. In this experimental model, a compound having anxiolytic activity decreased the % of movements into the dark in comparison with the total movements, increased the movements between the two light-dark compartments, and increased the % of time spent in the light in comparison with the total time.
The results obtained are shown in Table 7, where the activities obtained with compounds 9, 21 and 51 are given, tested in comparison with diazepam.

SMILES: O=C(O)CC[C@@H](NC(=O)c1cc(Cl)cc(Cl)c1)C(=O)N1CCC2(CCCC2)CC1 [CR 2194, (R)-5-(8-azaspiro[4.5]decan-8-yl)-4-(3,5-dichloro-benzoylamino)-5-oxopentanoic acid, reference compound]
- Ratio IC50 Binding cortex / IC50 (gastric mucous cells) [1]: 6.3
- CCK-B-antagonistic activity IC50 (II) [1]: 0.38 µmol/L
- IC50, inhibition of the increase of cytosolic calcium [1]: 0.38 µmol/L
- ED50 [2]: 11 mg/kg and 24.9 µmol/kg
- Ratio I/II (CCK-A IC50 / CCK-B IC50) (CCK-A): 35.5
- IC50 (CCK-A): 13.5 µM

SMILES: O=C(CC[C@@H](NC(=O)c1cc(Cl)cc(Cl)c1)C(=O)N1CCC2(CCCC2)CC1)N[C@@H](Cc1ccccc1)C(=O)O [Compound 10]
- IC50 (central CCK-B receptor): 730 nM
- Ratio IC50 Binding cortex / IC50 (gastric mucous cells) [1]: 3.7
- CCK-B-antagonistic activity IC50 (II) [1]: 0.20 µmol/L
- IC50, inhibition of the increase of cytosolic calcium [1]: 0.20 µmol/L
- ED50 [2]: 28.4 mg/kg and 48.3 µmol/kg
- Ratio I/II (CCK-A IC50 / CCK-B IC50) (CCK-A): 179
- IC50 (CCK-A): 35.8 µM

SMILES: O=C(O)C[C@@H](Cc1ccccc1)NC(=O)CC[C@@H](NC(=O)c1cc(Cl)cc(Cl)c1)C(=O)N1CCC2(CCCC2)CC1 [Compound 15]
- times more active than the corresponding diastereoisomer at the carbon atom (**) (central CCK-B receptor; binding, guinea-pig cortex): 1.5 times
- IC50 (central CCK-B receptor): 220 nM
- Ratio IC50 Binding cortex / IC50 (gastric mucous cells) [1]: 7.3
- CCK-B-antagonistic activity IC50 (II) [1]: 0.03 µmol/L
- IC50, inhibition of the increase of cytosolic calcium [1]: 0.03 µmol/L
- ED50 [2]: 13.5 mg/kg and 22.4 µmol/kg
- Ratio I/II (CCK-A IC50 / CCK-B IC50) (CCK-A): 160
- IC50 (CCK-A): 4.8 µM

SMILES: CN(C(=O)CC[C@@H](NC(=O)c1cc(Cl)cc(Cl)c1)C(=O)N1CCC2(CCCC2)CC1)c1ccccc1C(=O)O [Compound 51]
- IC50 (central CCK-B receptor): 120 nM
- Ratio IC50 Binding cortex / IC50 (gastric mucous cells) [1]: 2.4
- IC50, inhibition of the increase of cytosolic calcium [1]: 0.05 µmol/L
- ED50 [2]: 9 mg/kg and 15.7 µmol/kg
- EFF. % VS CONTROL (LIGHT TIME TOTAL TIME) (mouse; 0.1 mg/kg IP): 12%
- EFF. % VS CONTROL (LIGHT-DARK MOVEMENTS) (mouse; 0.1 mg/kg IP): 19%
- EFF. % VS CONTROL (MOV. DARK % TOTAL MOV.) (mouse; 0.1 mg/kg IP): -12%
- LIGHT TIME TOTAL TIME (mouse; 0.1 mg/kg IP): 27.0%
- LIGHT-DARK MOVEMENTS (mouse; 0.1 mg/kg IP): 17.6
- MOV. DARK % TOTAL MOV. (mouse; 0.1 mg/kg IP): 61%
- TOTAL MOVEMENTS (mouse; 0.1 mg/kg IP): 472
- EFF. % VS CONTROL (LIGHT TIME TOTAL TIME) (mouse; 1.0 mg/kg IP): 48%
- EFF. % VS CONTROL (LIGHT-DARK MOVEMENTS) (mouse; 1.0 mg/kg IP): 34%
- EFF. % VS CONTROL (MOV. DARK % TOTAL MOV.) (mouse; 1.0 mg/kg IP): -14%
- LIGHT TIME TOTAL TIME (mouse; 1.0 mg/kg IP): 35.6%
- LIGHT-DARK MOVEMENTS (mouse; 1.0 mg/kg IP): 19.8
- MOV. DARK % TOTAL MOV. (mouse; 1.0 mg/kg IP): 59%
- TOTAL MOVEMENTS (mouse; 1.0 mg/kg IP): 484
- EFF. % VS CONTROL (LIGHT TIME TOTAL TIME) (mouse; 10.0 mg/kg IP): 16%
- EFF. % VS CONTROL (LIGHT-DARK MOVEMENTS) (mouse; 10.0 mg/kg IP): 37%
- EFF. % VS CONTROL (MOV. DARK % TOTAL MOV.) (mouse; 10.0 mg/kg IP): -10%
- LIGHT TIME TOTAL TIME (mouse; 10.0 mg/kg IP): 27.8%
- LIGHT-DARK MOVEMENTS (mouse; 10.0 mg/kg IP): 20.3
- MOV. DARK % TOTAL MOV. (mouse; 10.0 mg/kg IP): 62%
- TOTAL MOVEMENTS (mouse; 10.0 mg/kg IP): 436
- anxiolytic activity, result in words (mouse; Black and White Box test, IP): anxiolytic activity without sedative activity
- increase in the number of light-dark movements in comparison with the controls (mouse; summary over doses): 20-30%

From patent US5962502A, “Polyamidic acid derivatives with antigastrin activity, a method for their preparation, and their pharmaceutical use” (priority 1993, dated 1999)
